Among the data in PubChem BioAssay (NCI) are GI50 and TGI values, retold here.

Some test systems named below: HCC-2998 colon; BT-549 breast; MDA-MB-435; TK-10 renal; CCRF-CEM leukemia; SF-539 CNS; SNB-75 CNS; SK-OV-3 ovarian; OVCAR-5 ovarian; KM12 colon.
Common to all, as to experiment: NCI anticancer screen, dose series, 48 h

Where “and” joins values, the source holds several entries; their conditions need not be identical. Identical values can stand only once.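 Protocol summary: plate cells (96-well), add compound at 5 concentrations, incubate 48 h, interpolate endpoints linearly. Abbreviation: GI50, concentration required for 50% inhibition of growth. At the TGI there is no net growth.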

Consider `CN(C)CCNc1nc2ccccc2c2c(=O)c3ccccc3sc12`, for which the GI50 in the test on HCC-2998 colon is 1.74 µM; in the test on BT-549 breast it was 1.88 µM; in the test with MDA-MB-435, 1.83 µM; in the test on TK-10 renal, 2.52 µM; in the test on CCRF-CEM leukemia, 1.92 µM; in the test on SF-539 CNS it was 1.78 µM. The GI50 is 1.74 µM in the test on SNB-75 CNS, 4.68 µM in the test on SK-OV-3 ovarian, 2.25 µM in the test with OVCAR-5 ovarian and 1.71 µM in the test on KM12 colon. The TGI in the test on HCC-2998 colon came to 3.46 µM; with BT-549 breast, 3.67 µM; in the test with MDA-MB-435, 3.42 µM; in the test on TK-10 renal, 6.15 µM; in the test with CCRF-CEM leukemia, 4.31 µM; with SF-539 CNS, 3.58 µM. In addition, the TGI turned out to be 6.94 µM with SNB-75 CNS, 19 µM in the test with SK-OV-3 ovarian, 5.14 µM with OVCAR-5 ovarian and 3.72 µM in the test on KM12 colon.

Regarding `N#Cc1c2c(c(-c3cccs3)n(C3OC(CO)C(O)C(O)C3O)c1=S)CCc1ccccc1-2` (stereo unspecified), the TGI with HCC-2998 colon, with BT-549 breast, with MDA-MB-435, in the test with TK-10 renal, with CCRF-CEM leukemia and in the test with SF-539 CNS was more than 100 µM in each case. Further, the TGI in the test with SNB-75 CNS is > 29.3 µM and 12.7 µM; in the test with SK-OV-3 ovarian it was more than 100 µM; with OVCAR-5 ovarian, more than 100 µM; with KM12 colon, more than 100 µM. In addition, in the test on SNB-75 CNS, the GI50 is 3.49 µM and 1.55 µM.

Take `C[N+](C)([O-])CCCNc1ccnc2cccc([N+](=O)[O-])c12`: the TGI was more than 100 µM with HCC-2998 colon; more than 100 µM in the test with BT-549 breast; more than 100 µM in the test with MDA-MB-435; more than 100 µM with TK-10 renal; more than 100 µM in the test with CCRF-CEM leukemia; 53.1 µM in the test with SF-539 CNS. Also, the TGI in the test on SNB-75 CNS, in the test with SK-OV-3 ovarian, in the test on OVCAR-5 ovarian and in the test with KM12 colon was more than 100 µM each time.

Consider `ClCC#CCSc1ncnc2c1ncn2CC#CCCl`, for which the GI50 is 1.67 µM with HCC-2998 colon; 1.61 µM in the test with BT-549 breast; 2.27 µM in the test with MDA-MB-435; 2.94 µM in the test on TK-10 renal; 1.8 µM in the test on CCRF-CEM leukemia; 2.1 µM in the test on SF-539 CNS. Besides, the GI50 in the test with SNB-75 CNS was 1.42 µM; with SK-OV-3 ovarian, 1.86 µM; with OVCAR-5 ovarian it was 1.73 µM; with KM12 colon it was 1.39 µM. The TGI with HCC-2998 colon was 3.11 µM; with BT-549 breast it was 3.02 µM; with MDA-MB-435, 9.04 µM; with TK-10 renal it was 13.9 µM; in the test with CCRF-CEM leukemia, 15.2 µM; in the test with SF-539 CNS, 4.21 µM. For the same compound, the TGI with SNB-75 CNS was found to be 3.06 µM; in the test with SK-OV-3 ovarian, 3.95 µM; in the test on OVCAR-5 ovarian it was 3.34 µM; in the test on KM12 colon it was 2.8 µM.

`O=[N+]([O-])c1cc(F)c2cccnc2c1O`: the GI50 was 10.6 µM in the test on HCC-2998 colon; 19 µM in the test on BT-549 breast; 15 µM with MDA-MB-435; 14.9 µM with TK-10 renal; 3.46 µM with CCRF-CEM leukemia; 13.6 µM in the test with SF-539 CNS. For the same compound, the GI50 in the test on SNB-75 CNS is 4 µM; in the test on SK-OV-3 ovarian, 26.3 µM; in the test with OVCAR-5 ovarian, 35.8 µM; in the test with KM12 colon, 7.95 µM. The TGI is more than 100 µM with HCC-2998 colon; more than 100 µM with BT-549 breast; more than 100 µM in the test with MDA-MB-435; more than 100 µM in the test on TK-10 renal; 26.7 µM in the test on CCRF-CEM leukemia; more than 100 µM in the test with SF-539 CNS. In addition, the TGI in the test with SNB-75 CNS, in the test on SK-OV-3 ovarian, in the test with OVCAR-5 ovarian and in the test with KM12 colon was more than 100 µM in each case.

As for `O=C(Nc1ccc(I)cc1F)c1cc(I)ccc1O`, the GI50 is 2.63 µM in the test with HCC-2998 colon; 0.548 µM in the test with BT-549 breast; 0.723 µM with MDA-MB-435; 1.49 µM in the test with TK-10 renal; 0.943 µM with CCRF-CEM leukemia; 0.651 µM with SF-539 CNS. The GI50 with SNB-75 CNS is 0.752 µM; with SK-OV-3 ovarian it was 2.56 µM; in the test with OVCAR-5 ovarian, 3.05 µM; in the test with KM12 colon it was 1.01 µM. The TGI in the test on HCC-2998 colon was 15.1 µM; in the test with BT-549 breast it was 2.48 µM; in the test on MDA-MB-435 it was 7.9 µM; with TK-10 renal it was more than 64.5 µM; in the test on CCRF-CEM leukemia, more than 37.6 µM; with SF-539 CNS it was 16.2 µM. Moreover, the TGI is 6.75 µM in the test on SNB-75 CNS, more than 100 µM in the test with SK-OV-3 ovarian, more than 100 µM with OVCAR-5 ovarian and 3.85 µM in the test with KM12 colon.

For `CCOC(=O)c1ccccc1-c1c2ccc(=[N+](C)C)cc-2oc2cc(N(C)C)ccc12`, the GI50 in the test with HCC-2998 colon is 0.35 µM; with BT-549 breast, 0.178 µM; in the test on MDA-MB-435, 0.255 µM; in the test on TK-10 renal it was 1.06 µM; in the test with CCRF-CEM leukemia, 0.42 µM; in the test on SF-539 CNS, 0.379 µM. The GI50 with SNB-75 CNS was 0.196 µM; in the test with SK-OV-3 ovarian it was 0.306 µM; with OVCAR-5 ovarian, 0.537 µM; in the test with KM12 colon, 0.196 µM. Further, the TGI in the test with HCC-2998 colon is 13.9 µM; in the test on BT-549 breast, 2.77 µM; in the test with MDA-MB-435 it was 5.71 µM; in the test on TK-10 renal, 25.2 µM; in the test on CCRF-CEM leukemia it was more than 45.9 µM; with SF-539 CNS it was 5.33 µM. The TGI was 11 µM with SNB-75 CNS, 1.74 µM in the test on SK-OV-3 ovarian, more than 39.6 µM in the test with OVCAR-5 ovarian and 10.9 µM with KM12 colon.

On to `Cc1c(C(=O)O[C@H]2[C@@H]3[C@H](C)CC[C@H]3[C@]3(C)O[C@@]2(C2CCCCC2)C[C@H]3OC(=O)CO)ccc2ccccc12`, for which the GI50 with HCC-2998 colon was 8.09 µM; in the test on BT-549 breast it was 5.28 µM; with MDA-MB-435 it was 8.15 µM; in the test with TK-10 renal, 8.12 µM; with CCRF-CEM leukemia, 9.13 µM; with SF-539 CNS, 7.65 µM. The GI50 with SNB-75 CNS is 2.98 µM; in the test with SK-OV-3 ovarian, 9.19 µM; in the test on OVCAR-5 ovarian it was 9.5 µM; in the test with KM12 colon it was 8.35 µM. The TGI worked out at 15.8 µM with HCC-2998 colon; 12.7 µM with BT-549 breast; 15.4 µM in the test with MDA-MB-435; 15.4 µM in the test with TK-10 renal; 20.9 µM in the test with CCRF-CEM leukemia; 14.9 µM in the test on SF-539 CNS. For the same compound, the TGI amounted to 11 µM in the test on SNB-75 CNS, 17.1 µM in the test with SK-OV-3 ovarian, 17.8 µM in the test on OVCAR-5 ovarian and 17.4 µM in the test with KM12 colon.

On to `COc1ccc(/C=N/N=C(\[O-])c2ccncc2)cc1F.COc1ccc(/C=N\N=C(/[O-])c2ccncc2)cc1F.[Cu+2]`, for which the GI50 is 32.9 µM in the test on HCC-2998 colon; 20.5 µM with BT-549 breast; 62.1 µM with MDA-MB-435; 19.9 µM in the test with TK-10 renal; 22 µM in the test on CCRF-CEM leukemia; 17.8 µM with SF-539 CNS. Also, the GI50 in the test on SNB-75 CNS is 14.6 µM; in the test with SK-OV-3 ovarian, 11.8 µM; with OVCAR-5 ovarian it was 18.6 µM; in the test with KM12 colon, 16.2 µM. The TGI in the test with HCC-2998 colon is more than 100 µM; in the test with BT-549 breast, 37.1 µM; in the test with MDA-MB-435, more than 100 µM; in the test on TK-10 renal it was 48 µM; in the test with CCRF-CEM leukemia, 68.9 µM; with SF-539 CNS, 37.1 µM. The TGI is 28.2 µM in the test with SNB-75 CNS, 24.1 µM with SK-OV-3 ovarian, 32.7 µM in the test on OVCAR-5 ovarian and 39 µM in the test on KM12 colon.

For the compound `O=C(O)C(=O)CBr`, the GI50 with HCC-2998 colon was > 100 µM and 19.3 µM; in the test with BT-549 breast it was > 47.6 µM and 20 µM; with MDA-MB-435, > 70.4 µM and 18 µM; in the test on TK-10 renal it was > 39.7 µM and 11.4 µM; in the test with CCRF-CEM leukemia, 14.4 µM and 7.12 µM; in the test on SF-539 CNS, > 41.1 µM and 16.8 µM. Besides, the GI50 in the test with SNB-75 CNS is > 100 µM and 25.2 µM; in the test on SK-OV-3 ovarian, > 100 µM and 19.7 µM; in the test on OVCAR-5 ovarian, > 44.2 µM and 18.4 µM; in the test with KM12 colon it was > 100 µM and 19 µM. Further, the TGI in the test on HCC-2998 colon was > 100 µM and 36.3 µM; in the test on BT-549 breast, > 77.9 µM and 35.2 µM; in the test with MDA-MB-435 it was > 100 µM and 32.7 µM; in the test on TK-10 renal, > 55.3 µM and 24.6 µM; in the test with CCRF-CEM leukemia it was > 52.2 µM and 38.6 µM; with SF-539 CNS, > 56.3 µM and 31.5 µM. The TGI was > 100 µM and 60.3 µM in the test with SNB-75 CNS; > 100 µM and 36 µM in the test on SK-OV-3 ovarian; > 64.8 µM and 37.5 µM in the test with OVCAR-5 ovarian; > 100 µM and 34.5 µM in the test with KM12 colon.

As for `CC[C@H](NC(=O)[C@H](CS(=O)(=O)CC1CC1)N[C@@H](c1ccc(F)cc1)C(F)(F)F)C(=O)C(=O)NC1CC1`, the GI50 in the test with HCC-2998 colon, in the test on BT-549 breast, in the test with MDA-MB-435, with TK-10 renal, in the test on CCRF-CEM leukemia and in the test on SF-539 CNS was more than 100 µM in each case. The GI50 in the test on SNB-75 CNS, in the test on SK-OV-3 ovarian, in the test with OVCAR-5 ovarian and in the test with KM12 colon was more than 100 µM in each case. Besides, the TGI in the test with HCC-2998 colon, in the test on BT-549 breast, in the test with MDA-MB-435, with TK-10 renal, in the test with CCRF-CEM leukemia and in the test with SF-539 CNS was more than 100 µM in each case. In addition, the TGI with SNB-75 CNS, in the test on SK-OV-3 ovarian, with OVCAR-5 ovarian and in the test with KM12 colon was more than 100 µM throughout.

For the compound `C=CCCC(=O)N1C=CC(=O)[C@H](O)[C@@H]1/C=C/c1ccccc1`, the GI50 in the test with HCC-2998 colon is 11.6 µM; in the test with BT-549 breast it was 11 µM; in the test on MDA-MB-435 it was 10.7 µM; in the test with TK-10 renal, 21.5 µM; in the test on CCRF-CEM leukemia, 5.61 µM; in the test on SF-539 CNS it was 7.87 µM. Also, the GI50 in the test on SNB-75 CNS was 27.4 µM; with SK-OV-3 ovarian, 18.6 µM; with OVCAR-5 ovarian it was more than 32.5 µM; in the test with KM12 colon, 16 µM. Moreover, the TGI in the test on HCC-2998 colon, in the test on BT-549 breast, in the test on MDA-MB-435, in the test with TK-10 renal, in the test with CCRF-CEM leukemia and in the test on SF-539 CNS was more than 32.5 µM in each case. In addition, the TGI in the test on SNB-75 CNS, with SK-OV-3 ovarian, in the test on OVCAR-5 ovarian and in the test on KM12 colon was more than 32.5 µM throughout.
